Where two headings read alike, the source gives them in different places.
Tests used:
PAX6 [1] = assay: PAX6 mRNA (RT-PCR) and protein (SDS-PAGE vs GAPDH) expression in human corneal epithelial cells; format: cell-based; conditions: for PAX6 protein expression: human cornea epithelium cells, 48 hours of treatment
Protocol: For example, PD0325901 (PD) was tested in human corneal epithelial cells (HCEC).
HCEC were treated with a PD composition comprising 1 μM PD dissolved in culture media for up to 120 hours. PAX6 protein levels were detected by SDS-PAGE and quantified by comparing the levels of GAPDH protein (FIG. 1A). In the same treated corneal epithelial cells, PAX6 mRNA expression was measured by RT-PCR using three different primers. (FIG. 1B).
In summary, the MEK inhibition increased PAX6 mRNA and protein expressions in human corneal epithelial cells (2.7±0.2 & 3.0±0.3 folds).

[2] = tested on: epithelial and limbal stem cell injury model; assay: Corneal injury model with limbal stem cell deficiency; format: in vivo, mouse; conditions: up to 1 month after injury
Protocol: The formulation was tested in an epithelial and limbal stem cell injury model, in which we injured the epithelium of the cornea up to the limbal area, creating a severe scar forming wound with limbal stem cell deficiency.
The PD composition provided in Example 1 was tested in an injury model, in which we injured the epithelium of the cornea up to the limbal area, creating a severe scar forming wound with limbal stem cell deficiency. Using an alger brush, the corneal epithelium was scraped under general anesthesia from limbus to limbus to create a limbal stem cell deficiency model. Following this injury, corneal limbal stem cell deficiency happens, similar to human disease, and the cornea becomes scarred, opacified and vascularized by time.

PAX6 [3] = assay: PAX6 mRNA measurement in murine PAX6 heterozygote corneal MSCs; format: cell-based; conditions: n=3
Excerpt: Significance determined by t test. *P<0.05. Ctrl: control. RX: treatment.

ERK1 and ERK2 = assay: Western blot of ERK1/ERK2 in human corneal epithelial cells; format: cell-based
Excerpt: Western blot analysis of human corneal epithelial cells confirmed that this MEK inhibitor effectively and specifically suppresses ERK1 and ERK2, while having minimal effect on p38 as the control (FIG. 10).

Aniridia mouse model = assay: P90 electroretinography (ERG) in Aniridia mouse model; format: in vivo
Protocol: Retina function was assessed in the Aniridia mouse model using P90 electroretinography (ERG). Aniridia mice were treated with the PD composition described in Example 1 or vehicle.

mouse model of Aniridia = format: in vivo; conditions: for Corneal stromal thickness: P30, OCT, central cornea, WT 50.5±1.1 μm; for PAX6 protein expression in corneas: P30 PAX6 staining, compared to control; for corneal whole mount CK12 staining intensity: P90, Normal CK12 intensity: 100%; for Corneal scarring (ratio of scar area to total corneal area): slit lamp images
Protocol: Aniridia is a human condition with PAX6 mutation that develops corneal scarring and neovascularization. The MEK pathway is known to inhibit the PAX6 pathway, therefore it was investigated whether MEK inhibitors can indirectly stimulate PAX6 production. MEK inhibitors were tested in vivo, in a mouse model of Aniridia which allowed for investigation corneal opacification, scarring and neovascularization. Oral and topical formulations were optimized using an exemplary MEK inhibitor, such as PD0325901 (PD).
Aniridia mice were treated with or topical PD composition or vehicle, from postnatal day P5 to P30. Wild type (WT) littermates were used as normal reference. OCT and slit lamp images were used to compare the corneal epithelial/stromal thickness, clarity and scarring. H&E and immunostaining with PAX6 and Cytokeratin (CK)12 were used to compare the morphology, protein expression and differentiation. P30 PAX6 staining confirmed increase in PAX6 protein expression in corneas with both oral (2.3±0.2 folds) and topical (2.5±0.1 folds) methods (P<0.001) (oral data not shown, topical data FIG. 3A).
FIG. 2 provides the data from the topical administration of PD compositions. […] The area of scarring was measured manually based on the corneal opacification in the scar area on the slit lamp images using ImageJ (NIH). The ratio of the scar area to total corneal area was reported as a percentage. […] These measurements show the promotion of a more normal differentiation of the corneal epithelium and stroma (FIG. 2). Corneal epithelial and stromal thicknesses were measured at the central cornea and outside the scar area via OCT imaging.
Hematoxylin and eosin (H&E) staining was carried out on Aniridia cornea tissue. […] FIG. 2 provides representative H&E staining of frozen sections from day 30).
Immunohistochemical staining of the mice eyes for DAPI, PAX6 and CK12 (a marker for normal corneal epithelium) was also carried out.

[4] = human corneal epithelial cells, n=3, FIG. 1

## O=C(c1ccc(F)c(F)c1Nc1ccc(I)cc1F)N1CC(O)([C@@H]2CCCCN2)C1 [Cobimetinib]
PAX6 [1]
  PAX6 protein expression: induced PAX6 protein expression
PAX6 [1]; [4]
  PAX6 protein measurement: can induce PAX6 expression

## O=C(NOC[C@H](O)CO)c1ccc(F)c(F)c1Nc1ccc(I)cc1F [PD0325901, Mirdametinib]
PAX6 [1]; [4]
  PAX6 mRNA measurement: increase in PAX6 expression
  PAX6 protein measurement: increase in PAX6 expression
[2]
  corneal neovascularization: significantly less
  corneal opacity / haziness: significantly less
[2]; listed as PD
  corneal neovascularization: significantly reduced
  corneal opacity / haziness: significantly reduced
PAX6 [3]
  PAX6 mRNA measurement: increase in PAX6 expression
ERK1 and ERK2
  ERK1/ERK2 inhibition: specific ERK1/ERK2 inhibition
Aniridia mouse model; P90 electroretinography, compared to the control group
  ocular/retinal function: significantly better ocular/retinal function
Aniridia mouse model; topical, P90 ERG
  Photopic β wave: 102.1 ± 50.9
  Scotopic α wave: −214.5 ± 64.1
  Scotopic β wave: 244.8 ± 120.1
Mouse model of Aniridia; frozen sections, day 30
  H&E histological pattern of cornea: more similar histological pattern to normal
Mouse model of Aniridia; mouse, in vivo, po
  toxicity of optimized formulation and dosage: no toxicity
Mouse model of Aniridia; oral
  Corneal stromal thickness: 24.7±4.1 μm
  PAX6 protein expression in corneas: 2.3±0.2 folds
  corneal whole mount CK12 staining intensity: 64±3%
  Corneal scarring (ratio of scar area to total corneal area): 2.1±0.4%
Mouse model of Aniridia; topical
  Corneal stromal thickness: 25.5±4.7 μm
  PAX6 protein expression in corneas: 2.5±0.1 folds
  corneal whole mount CK12 staining intensity: 69±32%
  Corneal scarring (ratio of scar area to total corneal area): 2.3±0.6%

## COc1cc(F)c(F)c(Nc2ccc(I)cc2F)c1NS(=O)(=O)C1(C[C@H](O)CO)CC1 [Refametinib, refametinib]
PAX6 [1]
  PAX6 protein expression: induced PAX6 protein expression
PAX6 [1]; [4]
  PAX6 protein measurement: can induce PAX6 expression
